# Reference: patent publication US11419843B2, “Small molecule BCL-2 functional converters as cancer therapeutics” (Oregon State University, priority 2016, dated 2022)
# “Also recorded” adds a separate entry of the source.
# Key:
# Format in all cases: cell-based, human
# [1] = test system: MDA-MB-231/Vector and MDA-MB-231/Bcl-2 cells; test: Viability screening assay in MDA-MB-231 cells with high and low Bcl-2 (CellTiter Glo); details: for Bcl-2 selective reduction in viability, MDA-MB-231/Bcl-2 vs MDA-MB-231/Vector: 10 μM, 24 h, 10% serum
# Protocol: In one example, a triple negative breast cancer cell line, MDA-MB-231, was used for screening these libraries. […] At the end of the assay, cell viability was determined using the cell titer Glo assay. […] A hit was defined as a compound inducing more than 20% reduction in viability of MDA-MB-231/Bcl-2 cells, compared to vector controls (MDA-MB-231/Vector). In the next step these shortlisted small molecules were tested for their ability to convert the conformation of Bcl-2 into a pro-apoptotic one.
# To screen for Bcl-2 selective compounds, MDA-MB-231 cells (MDA-MB-231/Vector and MDA-MB-231/Bcl-2) were plated at 4000 cells per well in a 96 well black opaque plate. The day after plating the cells, treatment from the library plates was done so as to add 1 μL of the compound into the cells, resulting in 10 μM concentration. For non-specific […], 25 nM of staurosporin was used. […] Post treatment viability was assessed by CellTiter Glo Cell Viability assay (Promega Inc., Madison, Wis.) as per manufacturer instructions.
# Viability for test compounds in each cell line (MDA-MB-231/Vector and MDA-MB-231/Bcl-2) was normalized to their respective vehicle treatments. Compounds that had at least 20% less viability in the MDA-MB-231/Bcl-2 cell line than the MDA-MB-231/Vector cell line were selected as initial hits and shortlisted for revalidation. Revalidated compounds were reordered for further testing and characterization. All data analyses were performed using Microsoft Excel.
# [2] = test system: Bcl-2 low and high expressing Jurkat lymphoma cells (Jurkat/Vector, Jurkat/Bcl-2); test: Cell viability in Bcl-2 low and high expressing Jurkat cells; details: for Effect of Bcl-2 expression on Jurkat cells exposed to cancer therapeutics: Jurkat cells with high and low expression of Bcl-2 (FIG. 9G); for Bcl-2 dependent effects in Jurkat Lymphoma cells: Bcl-2 low and high expressing Jurkat lymphoma cells treated for 72 hours with various concentrations; for minimal effective concentration: Homo sapiens, Jurkat lymphoma cells, 72 hours, n/d means no reduction was detected at concentrations tested, read-out: Lowest effective dose (minimal effective concentration that induced Bcl-2-dependent reduction in cell viability)
# [3] = test system: MDA-MB-468 parental and derived paclitaxel or doxorubicin resistant cells; test: Viability of MDA-MB-468 parental and derived resistant cells; details: 72 hours
# Protocol: Percentage viability relative to vehicle treatment. Representative of three independent assays in triplicate.
# Percentage viability relative to vehicle treatment.
# Percentage viability relative to vehicle treatment. Representative of three independent assays conducted in triplicate.
# (§1) Cells of interest were plated at 2000 cells per well in 96-well black tissue culture plate and allowed to adhere to the plate overnight. Viability assays were performed using 10% serum medium unless otherwise stated. Drugs were diluted in supplemented tissue culture medium and added at increasing concentrations, with DMSO as a vehicle control. Cells were then incubated for either 48 hour or 72 hours in presence of the compound, Promega Titer Glo was added to the wells at the assay end point according to manufacturer's protocol. Luminescence was measured using Tropix TR717 Microplate luminometer. Percentage of viable cells is relative to vehicle (100%). As a complementary viability assay, eBioscience Fixable Viability Dye eFluor 660(65-0864) was used to stain dead cells and analyzed using flow cytometry.
# [4] = test system: H460 parental and derived paclitaxel resistant cells; test: Viability of H460 parental and paclitaxel resistant cells
# Protocol: Percentage viability relative to vehicle treatment was calculated. Representative of three independent assays conducted in triplicate.
# FIG. […] Percentage viability relative to vehicle treatment. Representative of three independent assays conducted in triplicate.
# Representative of three independent assays conducted in triplicate.
# Cell lines were obtained from ATCC and maintained according to manufacturer's instructions. The human lung cancer cell line NCI-H460, H69AR (ATCC) were cultured in RPMI medium (Corning) containing 10% FBS. The human breast cancer cell line MDA-MB-231 was cultured in DMEM medium (Corning) containing 10% FBS. All cell lines were maintained at 5% CO2 and 37° C. Paclitaxel resistant H460 cells were derived by treating cells once a week over 6 weeks, initially with 1 nM paclitaxel and then increasing dose incrementally up to 100 nM. Once resistance was confirmed, paclitaxel was withdrawn from the cells. Resistance to paclitaxel was maintained without presence of paclitaxel measured up to 2 months. A parental line was maintained for a similar number of passages as the resistant line. All experiments were performed using cells that had not been treated with paclitaxel in at least three passages.
# as §1, with “Cells were then incubated for either 48 hour or 72 hours in presence of the compound, Promega Titer Glo was added to the wells at the assay end point according to manufacturer's protocol.” left out
# [5] = test system: H460 parental and resistant cells; test: Annexin-V apoptosis assay in H460 parental and resistant cells; details: 10 nM paclitaxel, 48 hours
# Protocol: FIG. 25E is the results of Annexin-V apoptosis assay in H460 cells treated for 48 hours with vehicle or paclitaxel 10 nM, quantification right panel.
# Cells were seeded into 6 well tissue culture plates to give approximately 50% confluence and allowed to attach overnight. The cells were then treated for a period of time indicated in figure legend with the appropriate compound at various concentrations (see figure legends). An Annexin V-conjugate PerCP-eFluor 710 apoptosis detection kit was used as described by the manufacturer's protocol (eBioscience 88-8008). Harvesting of cells included collection of floating and attached cells following trypsinization. Data were acquired using an CytoFLEX S flow cytometer (Beckman Coulter, Brea, Calif.) and 10,000 events on the PC5.5 channel were analyzed using CytExpert software (Beckman Coulter). For Nur77 GFP tagged annexin V analysis, GFP positive population were selected and then Annexin V+population was determined. For each sample, 10,000 GFP+ events were collected. Annexin V positive cell population was considered to be the apoptotic population, and the percent of annexin V positive cell population was used to determine the extent of apoptosis.
# [6] = test system: H460 parental and resistant cells; test: Colony formation (2D clonogenic, 3D soft agar) of H460 parental and resistant cells; details: 10 nM paclitaxel, continuously for 14 days
# Text: Colony forming ability (%) relative to vehicle treatment. Representative of three independent conducted assays in triplicate.
molecule,measurement,setting,value
"2-Iodo acetamide [Iodoacetamide, reference compound]","Bcl-2 selective reduction in viability, MDA-MB-231/Bcl-2 vs MDA-MB-231/Vector",[1],selectively induce more cell death in high-Bcl-2 expressing MDA-MB-231 cells
"O=c1[nH]cc(F)c(=O)[nH]1 [5-fluoro uracil, reference compound]",Effect of Bcl-2 expression on Jurkat cells exposed to cancer therapeutics,[2],Bcl-2 expression protected Jurkat cells
same,Cross-resistance of MDA-MB-468 paclitaxel-resistant line,[3],cross-resistant
"COc1ccc([N+](=O)[O-])cc1CSc1nc2sc3c(c2c(=O)n1-c1ccccc1)CCCC3 [BFC1111, 2-[(2-methoxy-5-nitrobenzyl)thio]-3-phenyl-5,6,7,8-tetrahydro[1] benzothieno[2,3-d]pyrimidin-4(3H)-one]","Bcl-2 selective reduction in viability, MDA-MB-231/Bcl-2 vs MDA-MB-231/Vector",[1]; listed as BFC1110-A,good Bcl-2 dependent effects in MDA-MB-231 cells; also recorded: comparable Bcl-2 selective induction of cell death as the parent BFC1110
same,Viability of H460 resistant vs parental line,[4]; 72 hours,reduced viability of resistant line preferentially
Nc1nc(N)c2nc(CNc3ccc(C(=O)N[C@@H](CCC(=O)O)C(=O)O)cc3)cnc2n1 [Compound 1],Bcl-2 dependent effects in Jurkat Lymphoma cells,[2],Yes
same,minimal effective concentration,[2],0.01 µM
CN(Cc1cnc2nc(N)nc(N)c2n1)c1c(Cl)cc(C(=O)N[C@@H](CCC(=O)O)C(=O)O)cc1Cl [Compound 2],Bcl-2 dependent effects in Jurkat Lymphoma cells,[2],Yes
same,minimal effective concentration,[2],0.001 µM
Nc1nc(N)c2nc(CNc3ccc(C(=O)N[C@@H](CC(=O)O)C(=O)O)cc3)cnc2n1 [Compound 3],Bcl-2 dependent effects in Jurkat Lymphoma cells,[2],Yes
same,minimal effective concentration,[2],10 µM
CC(Nc1ccc(C(=O)N[C@@H](CCC(=O)O)C(=O)O)cc1)c1cnc2nc(N)nc(O)c2n1 (some centres unmarked) [Compound 4],Bcl-2 dependent effects in Jurkat Lymphoma cells,[2],No
CN(Cc1cnc2nc(N)nc(N)c2n1)c1ccc(C(=O)N[C@@H](CCC(=O)O)C(=O)O)cc1F [Compound 5],Bcl-2 dependent effects in Jurkat Lymphoma cells,[2],Yes
same,minimal effective concentration,[2],0.01 µM
CN(Cc1cnc2nc(N)nc(N)c2n1)c1c(F)cc(C(=O)N[C@@H](CCC(=O)O)C(=O)O)cc1F [Compound 6],Bcl-2 dependent effects in Jurkat Lymphoma cells,[2],Yes
same,minimal effective concentration,[2],0.01 µM
Cc1cc(C(=O)O)cc(C)c1N(C)Cc1cnc2nc(N)nc(N)c2n1 [Compound 7],Bcl-2 dependent effects in Jurkat Lymphoma cells,[2],No
C=CCN(Cc1cnc2nc(N)nc(N)c2n1)c1ccc(C(=O)N[C@@H](CCC(=O)O)C(=O)O)cc1 [Compound 8],Bcl-2 dependent effects in Jurkat Lymphoma cells,[2],Yes
same,minimal effective concentration,[2],0.01 µM
CN(Cc1cnc2nc(N)nc(N)c2n1)c1cc(Cl)c(C(=O)N[C@@H](CCC(=O)O)C(=O)O)c(Cl)c1 [Compound 9],Bcl-2 dependent effects in Jurkat Lymphoma cells,[2],Yes
same,minimal effective concentration,[2],1 µM
Nc1nc(N)c2nc(CC3CCCc4cc(C(=O)N[C@@H](CCC(=O)O)C(=O)O)ccc43)cnc2n1 (some centres unmarked) [Compound 10],Bcl-2 dependent effects in Jurkat Lymphoma cells,[2],Yes
same,minimal effective concentration,[2],0.1 µM
CN(Cc1cnc2nc(N)nc(N)c2n1)c1ccc(C(=O)N[C@@H](CCC(=O)O)C(=O)O)c2ccccc12 [Compound 11],Bcl-2 dependent effects in Jurkat Lymphoma cells,[2],Yes
same,minimal effective concentration,[2],0.001 µM
Nc1nc(N)c2nc3c(nc2n1)C(=O)N(c1ccc(C(=O)O)cc1)C3 [Compound 12],Bcl-2 dependent effects in Jurkat Lymphoma cells,[2],No
"O=P1(N(CCCl)CCCl)NCCCO1 (centres unmarked) [cyclophosphamide, reference compound]",Effect of Bcl-2 expression on Jurkat cells exposed to cancer therapeutics,[2],Bcl-2 expression protected Jurkat cells
"COc1cccc2c1C(=O)c1c(O)c3c(c(O)c1C2=O)C[C@@](O)(C(=O)CO)C[C@@H]3O[C@H]1C[C@H](N)[C@H](O)[C@H](C)O1 [doxorubicin, reference compound]",Effect of Bcl-2 expression on Jurkat cells exposed to cancer therapeutics,[2],Bcl-2 expression protected Jurkat cells
same,Susceptibility of H460 paclitaxel resistant line (cross resistance),[4]; viability assays and colony formation assays,paclitaxel resistant line was also less susceptible to doxorubicin treatment
same,Cross-resistance of MDA-MB-468 paclitaxel-resistant line,[3],cross-resistant
"Nc1ccn([C@@H]2O[C@H](CO)[C@@H](O)C2(F)F)c(=O)n1 [gemcitabine, reference compound]",Effect of Bcl-2 expression on Jurkat cells exposed to cancer therapeutics,[2],Bcl-2 expression protected Jurkat cells
"CS(=O)(=O)CCNCc1ccc(-c2ccc3ncnc(Nc4ccc(OCc5cccc(F)c5)c(Cl)c4)c3c2)o1 [lapatinib, reference compound]",Effect of Bcl-2 expression on Jurkat cells exposed to cancer therapeutics,[2],Bcl-2 expression protected Jurkat cells
"CC(=O)O[C@H]1C(=O)[C@@]2(C)[C@H]([C@H](OC(=O)c3ccccc3)[C@]3(O)C[C@H](OC(=O)[C@H](O)[C@@H](NC(=O)c4ccccc4)c4ccccc4)C(C)=C1C3(C)C)[C@]1(OC(C)=O)CO[C@@H]1C[C@@H]2O [paclitaxel, reference compound]","Induction of apoptosis (Annexin V), H460 resistant vs parental",[5],minimal induction of apoptosis in the derived H460 resistant line compared to parental sensitive line
same,Viability of MDA-MB-231 cells expressing pcDNA vector or Bcl-2,[1]; paclitaxel 10 nM,"reduced viability of MDA-MB-231 cells transfected with pcDNA vector, while Bcl-2 transfected MDA-MB-231 cells were partially resistant"
same,Reduction of viability of H460 parental cells,"[4]; paclitaxel, 72 hours",90%
same,Viability of H460 paclitaxel resistant line,"[4]; paclitaxel, 72 hours",unaffected
same,"Colony formation in 2D and 3D soft agar assays, H460 parental and resistant",[6],"inhibited the parental cells ability to form colonies in 2D and 3D soft agar assays, while resistant lines tumorigenicity was unchanged"
same,Viability of MDA-MB-468 parental and paclitaxel resistant lines,[3]; paclitaxel,"derived resistant line viability was unaffected by 50 nM, however parental line was sensitive"
